One compound from patent publication US20240307525A1 (priority 2020, published 2024) can be followed below.

Holding throughout (assay): microbe, parasite or virus in culture
Common to all, as to format: cell-based, SARS-COV-2

Assay [1] has as its system rSARS-COV-2-Venus. The conditions noted are these: Severe acute respiratory syndrome coronavirus 2, Vero C1008.
In assay [2] the test system is rSARS-COV-2-mCherry. The note with it: Severe acute respiratory syndrome coronavirus 2, Vero C1008.
In assay [3] the test system is rSARS-COV-2-Nluc. The note with it: Severe acute respiratory syndrome coronavirus 2, Vero C1008, 48 h.
For assay [4], the system named is rSARS-COV-2/WT. The conditions noted are these: Severe acute respiratory syndrome coronavirus 2, Vero C1008.

pEC50: −log10 of the molar value.

`CCC(CC)COC(=O)[C@H](C)N[P@](=O)(OC[C@H]1O[C@@](C#N)(c2ccc3c(N)ncnn23)[C@H](O)[C@@H]1O)Oc1ccccc1` [Remdesivir]: the pEC50 – broadly, −log10 of the EC50, conventionally taken in molar units – was 5.97 in assay [1], 5.75 in assay [2], 5.75 in assay [3] and 5.82 in assay [4].
